In article PMC4866688, “Trypanosoma brucei DHFR-TS Revisited: Characterisation of a Bifunctional and Highly Unstable Recombinant Dihydrofolate Reductase-Thymidylate Synthase” (PLoS Neglected Tropical Diseases, 2016):
Values joined by “and” are separate entries in the source; they are usually repeats but may differ in a detail not shown here. Equal values may be shown once. Read-outs that look alike come from different tables or passages of the source.

Assays:
[1] = molecular target: T1, T. brucei TS (Tsf-TbDHFR-TS) (Trypanosoma brucei brucei, UniProt Q27783); assay: Inhibition of TS activity of Tsf-TbDHFR-TS in clarified thyA- E. coli lysate; assay type: biochemical
T1 construct: The open reading frame of DHFR-TS was amplified by PCR from T. brucei gDNA using specific oligonucleotides; made in house; host or cells: thyA- E. coli derived from BL21 Star (DE3); unpurified clarified lysate
T1 sequence (Q27783 whole entry): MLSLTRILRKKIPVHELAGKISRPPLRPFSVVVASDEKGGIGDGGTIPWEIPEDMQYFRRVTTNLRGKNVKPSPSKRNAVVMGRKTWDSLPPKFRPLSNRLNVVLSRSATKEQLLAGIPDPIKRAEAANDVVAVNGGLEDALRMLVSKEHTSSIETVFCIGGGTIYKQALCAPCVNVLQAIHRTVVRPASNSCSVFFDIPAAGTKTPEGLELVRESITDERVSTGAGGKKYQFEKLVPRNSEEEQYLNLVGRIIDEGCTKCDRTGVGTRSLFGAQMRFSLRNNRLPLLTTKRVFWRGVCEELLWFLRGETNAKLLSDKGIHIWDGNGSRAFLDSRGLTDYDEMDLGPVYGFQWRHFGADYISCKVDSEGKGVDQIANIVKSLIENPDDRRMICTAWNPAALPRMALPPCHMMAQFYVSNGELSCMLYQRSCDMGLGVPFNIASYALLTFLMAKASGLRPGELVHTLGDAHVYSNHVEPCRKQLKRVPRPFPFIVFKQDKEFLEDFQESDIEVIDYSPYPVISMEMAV
T1 sequence (P0A6P1 whole entry, further chain): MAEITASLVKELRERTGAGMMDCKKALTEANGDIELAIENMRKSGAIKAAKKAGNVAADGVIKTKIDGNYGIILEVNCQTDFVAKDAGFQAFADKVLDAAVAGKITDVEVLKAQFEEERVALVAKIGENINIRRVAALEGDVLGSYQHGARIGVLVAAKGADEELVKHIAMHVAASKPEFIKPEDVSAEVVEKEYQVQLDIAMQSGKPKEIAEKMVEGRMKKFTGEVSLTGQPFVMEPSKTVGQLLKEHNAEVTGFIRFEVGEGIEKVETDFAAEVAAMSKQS
Method: The initial characterisation of TS was also carried out using a spectrophotometric assay. […] Enzymatic reactions were initiated by the addition of CH2THF (200 μM, Shircks Laboratories) and initial rates of CH2THF oxidation to DHF monitored by the increase in absorbance at 340 nm (ε = 6,200 M^-1 cm^-1). […] Residual 5-[^3H]-dUMP was removed by the addition of 200 μl of 10% (w/v) activated charcoal (Sigma). Aliquots (100 μl) of the supernatants were added to 2 ml of scintillation fluid (Pico-Fluor 40™, Packard Bioscience) and radioactivity determined using a Beckmann LS 6500 Scintillation Counter. To determine TS activity in clarified T. brucei lysates the incubation time was increased to 30 min and the assay volume was increased to ~200 μl. […] For stability experiments all lysates were desalted using 0.5 ml Zeba Spin Desalting Columns (7K MWCO). Protein concentrations were determined using the BioRad protein assay based on the method of Bradford. Inhibitors (8-point doubling dilutions) were assayed using the radiometric method in the presence of 100 μM CH2THF, 200 μM dUMP and 200 nM Tsf-TbDHFR-TS.

[2] = molecular target: T2, T. brucei DHFR (Tsf-TbDHFR-TS) (Trypanosoma brucei brucei, UniProt Q27783); assay: Kinetic analysis of DHFR activity (substrates); assay type: biochemical; parameters: The open reading frame of DHFR-TS was amplified by PCR from T. brucei gDNA using specific oligonucleotides; made in house; host or cells: thyA- E. coli derived from BL21 Star (DE3); conditions: for Activity as substrate for T. brucei DHFR: <17,000-fold (folate) and <2,300-fold (pterins) compared to DHF as substrate
T2 sequence (Q27783 whole entry): as the sequence (Q27783 whole entry) above

[3] = molecular target: T2, T. brucei DHFR (Tsf-TbDHFR-TS); assay: Inhibition of DHFR activity of recombinant Tsf-TbDHFR-TS (spectrophotometric, 340 nm); conditions: for Modality of inhibition of DHFR: with respect to DHF
Method: DHFR activity was determined spectrophotometrically at 340 nm [18]. DHFR (5 nM) was pre-incubated with 100 μM NADPH (Medford) in assay buffer (50 mM HEPES, pH 7.4, containing 100 mM KCl) for 1 min at 25°C (1 ml final assay volume), before the addition of 100 μM DHF (Sigma Aldrich). […] The Km^app values for DHFR substrates were determined by varying the concentration of one substrate in the presence of a fixed saturating concentration of the other. IC50 values were determined using 8-point doubling dilutions of inhibitor under the above standard assay conditions.
Results were analysed by non-linear regression using GraFit v 5.0.13 (Erithacus Software). Km^app values were determined using the Michaelis-Menten equation. IC50 values were determined using eq 1 and Ki values calculated using the Cheng-Prusoff eq 2 [23].

[4] = tested on: T. brucei bloodstream-form 'single marker' S427; assay: Growth inhibition of wild type T. brucei, 72 h, resazurin-based assay; assay type: cell-based; conditions: Trypanosoma brucei
Method: Wild type (WT) T. brucei bloodstream-form ‘single marker’ S427 were cultured in HMI9T medium supplemented with 2.5 μg ml^-1 G418 to maintain expression of T7 RNA polymerase and the tetracycline repressor protein [27]. HMI9T medium (standard media for T. brucei cell culture) contains high concentrations of folate (~9 μM) and thymidine (~160 μM) principally from IMDM and 10% Serum Plus components. A medium based on HMI9T, only lacking Serum Plus, folate and thymidine was prepared in-house, named trypanosome base media (TBM; the residual folate is provided by the serum component). A comparison of these media is described in S2 Table. WT T. brucei cells grow normally in TBM and the rate of growth is similar to HMI9T in TBM with no supplementation, supplementation with 9 μM folate, 160 μM thymidine or supplementation with both folate and thymidine (7–8 h doubling time).
EC50 of antifolates against T. brucei were determined in 96-well microtitre plates. Serial doubling dilutions of antifolate drugs (10–50 mM stocks prepared in DMSO) were prepared in 100 μl of the appropriate medium and trypanosomes (resuspended in the same medium) added in 100 μl to give a final concentration of 2.5 × 10^3 cells ml^-1. All wells, including controls, contained a final volume of 0.5% DMSO. Cultures were incubated for 72 h at 37°C / 5% CO2 before cell density was determined using a resazurin-based assay. EC50 values were calculated using GraFit v 5.0.13 (Erithacus Software) with a 3-parameter non-linear regression from triplicate readings. Antifolates were tested against parasites cultured in TBM; this allowed for the addition of thymidine (160 μM) and folate (9 μM) respectively.

Human DHFR = conditions: ref Jackman et al. [12]; cited from earlier work
Human TS = conditions: ref Jackman et al. [12]; cited from earlier work
[5] = 100 μM CH2THF, 200 μM dUMP, 200 nM Tsf-TbDHFR-TS, Inactive * = no inhibition at 25 μM, ** = no inhibition at 100 μM
[6] = TBM (folate and thymidine deficient), read-out: EC50, No addition
[7] = TBM + folate (9 μM), read-out: EC50, + Folate
[8] = TBM + thymidine (160 μM) + folate (9 μM), read-out: EC50, + Thymidine + Folate
[9] = TBM + thymidine (160 μM), read-out: EC50, + Thymidine
[10] = DHFR Ki, T. brucei, recombinant TbDHFR-TS, from IC50 (Cheng-Prusoff) or Morrison equation for tight binders, Inactive ** = no inhibition at 100 μM

`OCCS` [2-mercaptoethanol] gave an EC50 ([1]; reducing agent at higher concentrations, clarified lysate) of about 100000 µM.
In the case of `Nc1nc2ncc([C@H](O)[C@H](O)CO)nc2c(=O)[nH]1` [neopterin], the “Activity as substrate for T. brucei DHFR” value [2] is reported as “inactive”.
For `CCc1nc(N)nc(N)c1-c1ccc(Cl)cc1` [Pyrimethamine, pyrimethamine], the “Modality of inhibition of DHFR” value [3] was “competitive inhibitors”, the “TS Ki, T. brucei” value [1, 5] was “Inactive ^**” and the EC50 [4, 6] was 2.26 ± 0.32 µM. The EC50 [4, 7] was 6.32 ± 0.71 µM, the EC50 [4, 8] was 6.87 ± 0.33 µM and the EC50 [4, 9] was 2.01 ± 0.34 µM.
In the case of `Cc1nc2ccc(CN(C)c3ccc(C(=O)N[C@@H](CCC(=O)O)C(=O)O)s3)cc2c(=O)[nH]1` [Raltitrexed, raltitrexed], the Ki ([3]; DHFR Ki (competitive inhibition, global fit, Fig 5), varying DHF, fixed amounts of inhibitor, non-linear regression) is reported as 0.0704 ± 0.0072 µM, the Ki [3, 10] is reported as 0.0931 ± 0.0079 µM and the “Modality of inhibition of DHFR” value [3] is reported as “competitive inhibitors”. The Ki ([1]; TS Ki, T. brucei, 100 μM CH2THF, 200 μM dUMP, 200 nM Tsf-TbDHFR-TS, Inactive * = no inhibition at 25 μM, ** = no inhibition at 100 μM) was 0.215 ± 0.018 µM, the Ki (Human DHFR) was 0.093 µM and the EC50 [4, 6] was 0.038 ± 0.001 µM. For the same compound, the EC50 [4, 7] was 64.8 ± 4.3 µM, the EC50 [4, 8] was over 250 µM and the EC50 [4, 9] was over 250 µM. The Ki (Human TS) was 0.06 µM.
In the case of `COc1cc(NCc2ccc3nc(N)nc(N)c3c2C)cc(OC)c1OC` [Trimetrexate, trimetrexate], the Ki [3, 10] is reported as 0.0006 µM and 0.000597 µM, the “Modality of inhibition of DHFR” value [3] is reported as “tight-binding inhibitors” and the “TS Ki, T. brucei” value [1, 5] is reported as “Inactive ^*”. For the same compound, the EC50 [4, 6] was 0.32 ± 0.02 µM, the EC50 [4, 7] was 1.23 ± 0.06 µM and the EC50 [4, 8] was 4.09 ± 0.35 µM. The EC50 [4, 9] was 2.82 ± 0.36 µM.
With `CN(Cc1cnc2nc(N)nc(N)c2n1)c1ccc(C(=O)N[C@@H](CCC(=O)O)C(=O)O)cc1` [Methotrexate, methotrexate] the “Modality of inhibition of DHFR” value [3] was “tight-binding inhibitors”, the EC50 [4, 6] was 0.012 ± 0.001 µM and the EC50 [4, 7] was 1.31 ± 0.13 µM. It also gave an EC50 [4, 8] of 8.16 ± 2.78 µM and an EC50 [4, 9] of 0.12 ± 0.03 µM.
With `Nc1nc(=O)c2nc(CNc3ccc(C(=O)N[C@@H](CCC(=O)O)C(=O)O)cc3)cnc2[nH]1` [Folic acid] the “Activity as substrate for T. brucei DHFR” value [2] was “inactive”.
`Nc1nc(=O)c2c([nH]1)NCC(CNc1ccc(C(=O)N[C@@H](CCC(=O)O)C(=O)O)cc1)=N2` [DHF, dihydrofolate] showed a Km ([2]; Tsf-TbDHFR-TS, purified, 50 mM HEPES pH 7.4, 100 mM KCl, read-out: DHF Km^app) of 4.1 ± 0.6 µM, a Km ([2]; Tsf-cleaved TbDHFR-TS, read-out: DHF Km^app) of 4.2 ± 0.5 µM and a Km ([2]; purified enzyme, read-out: DHFR Km^app (Fig 4 legend)) of 4.1 ± 0.6 µM.
With `C[C@H](O)C(=O)C1=Nc2c(nc(N)[nH]c2=O)NC1` [sepiapterin] the “Activity as substrate for T. brucei DHFR” value [2] was “inactive”.
